The values that follow come from patent US20160252494A1, “MICROSCALE MICROPATTERNED ENGINEERED IN VITRO TISSUE” (priority 2005, published 2016).

Series [1] relates to micropatterned human co-cultures (primary human hepatocytes with 3T3-J2 fibroblasts). The settings on record: MTT. Here is the method:
Cultures were incubated with various concentrations of compounds dissolved in culture medium for 24 hours (acute toxicity) or extended time periods (chronic toxicity, 1-4 days). Cell viability was subsequently measured via the MTT (3-(4,5-dimethylthiazol-2-yl)-2,5-diphenyl tetrazolium bromide; Sigma) assay, which involves cleavage of the tetrazolium ring by mitochondrial dehydrogenase enzymes to form a purple precipitate. MTT was added to cells in DMEM without phenol red at a concentration of 0.5 mg/mL. After an incubation time of 1 hour, the purple precipitate was dissolved in a 1:1 solution of DMSO and Isopropanol. The absorbance of the solution was measured at 570 nm (SpectraMax spectrophotometer, Molecular Devices, Sunnyvale, Calif.).
Use of optimized micropatterned human co-cultures to evaluate metabolism and toxicity of xenobiotics. […] Acute toxicity tests involved incubating eight day old co-cultures for 24 hrs with various drugs, some with known clinical hepatotoxic potential. After the incubation time period, the cell culture medium was aspirated and a viability assay was conducted (MTT assay—commercially available). […]
To assess utility of the microscale human liver tissue for toxicity assays, the acute and chronic toxicity of model hepatotoxins were quantified. […]

The subject of series [2] is CYP2B.
Series [3] concerns CYP2A6.
Description: The reactions were stopped by collection of the incubation medium. Then, potential metabolite conjugates formed via Phase II activity were hydrolyzed by incubation of supernatants with β-glucuronidase/arylsulfatase (Roche, IN) for 2 hours at 37° C. Samples were diluted 1:1 in quenching solution and fluorescent metabolite formation was quantified by means of a fluorescence micro-plate reader (Molecular Devices, Sunnyvale, Calif.) as described elsewhere in detail. Production of 7-HC from CM is a reaction (CM 7-Hydroxylation) mediated by CYP2A6 in humans, production of 7-HFC from BFC or MFC (dealkylation) is mediated by several different CYP450s, and production of RR from ER (ER Odealkylation) is mediated by CYP1A2.
Cytochrome-P450 Induction. Stock solutions of prototypic CYP450 inducers (Sigma) were made in dimethylsulfoxide (DMSO), except for Phenobarbital, which was dissolved in water. Cultures were treated with inducers (Rifampin 25 μM, β-Naphthoflavone 30 μM or 50 μM, Phenobarbital 1 mM, Omeprazole 50 μM) dissolved in hepatocyte culture medium for 4 days. Control cultures were treated with vehicle (DMSO) alone for calculations of fold induction. To enable comparisons across inducers, DMSO levels were kept constant at 0.06% (v/v) for all conditions.
Series [4] concerns CYP1A2. Conditions: human and rat, 4 days, 50 µM.
Series [5] has as its system CYP2B. Put plainly: CYP2B protein induction in static and perfused bioreactor hepatocyte cultures.
In series [6] the test system is CYP3A. The series is described as follows: CYP3A protein induction in static and perfused bioreactor hepatocyte cultures.
In series [7] the target is T1, CYP2A6 (Homo sapiens, UniProt P11509).
T1 sequence (P11509 1-494): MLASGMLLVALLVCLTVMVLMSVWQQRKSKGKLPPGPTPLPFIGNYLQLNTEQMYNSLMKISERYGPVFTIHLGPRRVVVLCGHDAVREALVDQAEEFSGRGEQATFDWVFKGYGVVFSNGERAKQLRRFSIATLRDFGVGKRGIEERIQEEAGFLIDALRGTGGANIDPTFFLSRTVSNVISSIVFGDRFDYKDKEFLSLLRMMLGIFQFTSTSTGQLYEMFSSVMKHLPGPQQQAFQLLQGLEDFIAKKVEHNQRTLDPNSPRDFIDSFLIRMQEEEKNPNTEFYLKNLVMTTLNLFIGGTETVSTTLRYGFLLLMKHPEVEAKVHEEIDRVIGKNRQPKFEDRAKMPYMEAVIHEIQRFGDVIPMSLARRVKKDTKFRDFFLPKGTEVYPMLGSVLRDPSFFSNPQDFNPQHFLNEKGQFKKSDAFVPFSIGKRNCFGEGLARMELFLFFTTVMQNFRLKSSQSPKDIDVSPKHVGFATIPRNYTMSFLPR
Description: Mitochondrial activity was measured using the MTT assay. All data was normalized to vehicle-only controls. […] ER, Ethoxy-resorufin. […] Error bars represent standard error of the mean (n=3).
The reactions were stopped by collection of the incubation medium. Then, potential metabolite conjugates formed via Phase II activity were hydrolyzed by incubation of supernatants with β-glucuronidase/arylsulfatase (Roche, IN) for 2 hours at 37° C. Samples were diluted 1:1 in quenching solution and fluorescent metabolite formation was quantified by means of a fluorescence micro-plate reader (Molecular Devices, Sunnyvale, Calif.) as described elsewhere in detail.

Series [8] concerns CYP1A2. Put plainly: Induction of CYP1A2 activity in microscale liver tissues (ethoxyresorufin dealkylation). Conditions: incubation 1 or 3 days, varying dose.
Series [9] concerns CYP3A. The settings on record: hepatocytes.
[10] abbreviates: treated 4 days with prototypic inducers.
Where [11] appears, read: static cultures, 48 hour induction.

Read-outs that look alike come from different tables or passages of the source.

In the case of `[Cl][Cd][Cl]` [Cadmium, Cadmium chloride], the “Relative acute toxicity in vitro” value in series [1] (24 hrs incubation) is on record as “severely toxic”. In [1] (acute exposure 24 hours), the “Shape of dose-dependent toxicity profile” value was “relatively linear toxic profile”.

For `C[C@@H]1C[C@H]2[C@@H]3CCC4=CC(=O)C=C[C@]4(C)[C@@]3(F)[C@@H](O)C[C@]2(C)[C@@]1(O)C(=O)CO` [DEX, dexamethasone], the CYP2B induction entry in the series with CYP2B [2] was “high levels”.

Regarding `COc1ccc2[nH]c([S+]([O-])Cc3ncc(C)c(OC)c3C)nc2c1` (stereo not shown) [Omeprazole], in the series with CYP2A6 [3], the CYP2A6 induction result is reported as “weaker effects”. In addition, the “Effectiveness of CYP1A2 induction in human over rat models” value in the series on CYP1A2 [4] came to 8 fold.

Take `CCC1(c2ccccc2)C(=O)NC(=O)NC1=O` [Phenobarbital]: in the series on CYP2A6 [3] (setting [10]), the CYP2A6 induction entry is “induction was observed”. The CYP2B expression result in the series with CYP2B [5] (perfused cultures, 36 hours) is given as “Dramatic expression of both CYPs over controls”; in the series with CYP2B [5] (setting [11]), “moderate”. The CYP3A expression entry in the series with CYP3A [6] (perfused cultures, 36 hours) was “Dramatic expression of both CYPs over controls”; in the series with CYP3A [6] (setting [11]), “low”.

On to `CO[C@H]1/C=C/O[C@@]2(C)Oc3c(C)c(O)c4c(O)c(c(/C=N/N5CCN(C)CC5)c(O)c4c3C2=O)NC(=O)/C(C)=C\C=C\[C@H](C)[C@H](O)[C@@H](C)[C@@H](O)[C@@H](C)[C@H](OC(C)=O)[C@@H]1C` [Rifampin], for which the CYP2A6 induction result in the series with CYP2A6 [3] is given as “induction was observed”.

On to `COc1c2occc2cc2ccc(=O)oc12` [methoxsalen, Methoxsalen], for which, at CYP2A6 [7], the “Inhibition of CYP2A6 activity” value is listed as “dose-dependent inhibition”.

With `O=c1cc(-c2ccccc2)oc2ccc3ccccc3c12` [β-Naphthoflavone], in the series with CYP2A6 [3] (setting [10]), the CYP2A6 induction entry is listed as “weaker effects”. In addition, the “Induction of CYP1A2 activity” value in the series on CYP1A2 [8] is “dose and time-dependent manner”.

Take “EGF: epidermal growth factor, added to perfusion media with PB or DEX”: in the series with CYP2B [2], the “Effect on DEX-induced CYP2B” value was “significant shift in CYP2B spatial distribution was noted from inlet regions to the outlet”. Also, in the series with CYP3A [9], the “Effect on DEX-induced CYP3A induction” value was “remained uniform”.
